Test results taken from ChEMBL document CHEMBL2021894, “The Discovery of VX-745: A Novel and Selective p38α Kinase Inhibitor” (ACS Med Chem Lett, 2011).

Assays:
[1] = target: T1, Mitogen-activated protein kinase 14 (Homo sapiens, UniProt Q16539); assay: Inhibition of p38alpha kinase using KRELVEPLTPSGEAPNQALLR as substrate for 20 mins by lactate dehydrogenase-coupled spectrophotometric assay
[2] = target: T1, Mitogen-activated protein kinase 14; assay: Inhibition of p38alpha in human PBMC assessed as inhibition of LPS-induced IL1beta production after 16 to 18 hrs by ELISA
[3] = target: T1, Mitogen-activated protein kinase 14; assay: Inhibition of p38alpha in human PBMC assessed as inhibition of LPS-induced TNFalpha production after 16 to 18 hrs by ELISA

T1 sequence (Q16539 whole entry): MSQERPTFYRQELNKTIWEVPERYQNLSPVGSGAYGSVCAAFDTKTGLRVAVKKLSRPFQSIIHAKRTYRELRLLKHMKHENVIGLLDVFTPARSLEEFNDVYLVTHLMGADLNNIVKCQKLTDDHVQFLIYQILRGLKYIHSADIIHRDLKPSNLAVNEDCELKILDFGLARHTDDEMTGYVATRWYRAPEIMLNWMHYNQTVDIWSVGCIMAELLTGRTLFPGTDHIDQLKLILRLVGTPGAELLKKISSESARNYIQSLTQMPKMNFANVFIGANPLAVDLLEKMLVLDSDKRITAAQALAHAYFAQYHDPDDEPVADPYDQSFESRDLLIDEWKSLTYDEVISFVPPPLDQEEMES

Compound	IC50 [1]	IC50 [2]	IC50 [3]
CCc1ccccc1Sc1ccc2c(-c3c(Cl)cccc3Cl)c(=O)ncn2n1	750 nM	980 nM	2800 nM
O=c1ncn2nc(Sc3ccccc3)ccc2c1-c1ccc(Cl)cc1Cl	5000 nM	20000 nM	20000 nM
Cc1cc(Cl)ccc1Sc1ccc2c(-c3c(Cl)cccc3Cl)c(=O)ncn2n1	180 nM	180 nM	160 nM
O=c1ncn2nc(Sc3ccc(F)cc3)ccc2c1-c1c(Cl)cccc1Cl	123 nM	–	293 nM
O=c1ncn2nc(Sc3ccccc3O)ccc2c1-c1c(Cl)cccc1Cl	360 nM	140 nM	490 nM
O=c1ncn2nc(Sc3ccc(Cl)c(Cl)c3)ccc2c1-c1c(Cl)cccc1Cl	800 nM	–	1200 nM
O=c1ncn2nc(Sc3ccccc3)ccc2c1-c1ccc(F)cc1	> 20000 nM	–	> 20000 nM
O=c1ncn2nc(Sc3ccccc3)ccc2c1-c1c(Cl)cccc1Cl	250 nM	400 nM	460 nM
Cc1ccc(Sc2ccc3c(-c4c(Cl)cccc4Cl)c(=O)ncn3n2)cc1	1400 nM	370 nM	–
Cc1ccccc1Sc1ccc2c(-c3c(Cl)cccc3Cl)c(=O)ncn2n1	200 nM	330 nM	3700 nM
COc1ccccc1-c1c(=O)ncn2nc(Sc3ccccc3)ccc12	12000 nM	2800 nM	–
O=c1ncn2nc(Sc3ccccc3)ccc2c1-c1c(F)cccc1F	3500 nM	3700 nM	15300 nM
Cc1ccc(Sc2ccc3c(-c4c(Cl)cccc4Cl)c(=O)ncn3n2)cc1C	1900 nM	2400 nM	3500 nM
Cc1cccc(Sc2ccc3c(-c4c(Cl)cccc4Cl)c(=O)ncn3n2)c1	1400 nM	–	–
Cc1ccccc1-c1c(=O)ncn2nc(Sc3ccccc3)ccc12	4400 nM	–	9700 nM
Nc1cc(F)ccc1Sc1ccc2c(-c3c(Cl)cccc3Cl)c(=O)ncn2n1	220 nM	280 nM	1200 nM
O=c1ncn2nc(Sc3cccc(F)c3)ccc2c1-c1c(Cl)cccc1Cl	–	440 nM	720 nM
Cc1ccc(Sc2ccc3c(-c4c(Cl)cccc4Cl)c(=O)ncn3n2)c(C)c1	260 nM	690 nM	320 nM
O=c1ncn2nc(Sc3ccc(F)cc3Cl)ccc2c1-c1c(Cl)cccc1Cl	36 nM	53 nM	275 nM
O=c1ncn2nc(Sc3ccccc3)ccc2c1-c1c(F)cccc1C(F)(F)F	1700 nM	1000 nM	3100 nM
O=c1ncn2nc(Sc3cccc(Cl)c3)ccc2c1-c1c(Cl)cccc1Cl	280 nM	–	–
O=c1ncn2nc(Sc3ccccc3)ccc2c1-c1ccccc1C(F)(F)F	11000 nM	2100 nM	> 20000 nM
O=c1ncn2nc(Sc3ccccc3)ccc2c1-c1ccccc1	> 20000 nM	–	–
O=c1ncn2nc(Sc3ccc(F)c(Cl)c3)ccc2c1-c1c(Cl)cccc1Cl	500 nM	180 nM	480 nM
O=c1ncn2nc(Sc3ccccc3)ccc2c1-c1ccccc1Cl	4100 nM	–	–
